# Laboratory results: patent US20060281689A1, “Method for modulating activity of HCV protease through use of a novel HCV protease inhibitor to reduce duration of treatment period” (Schering Corporation, priority 2005, published 2006)
# Tests used:
# [1] = test system: hepatitis C virus; assay: Model of viral dynamics modified with Total ε: theoretical effectiveness rate and viral load over a 48 week treatment period; parameters: species or system patients
# Excerpt: The effectiveness of suppression of viral production through treatment in accordance with the methods of the present invention can be calculated through a combination pharmacokinetic and pharmacodynamic analysis with a modified version of the absorption and elimination model described in the art. See Powers K A. et al. (Seminars in Liver Disease, 23 Suppl. 1:13-8, 2003). The absorption and elimination model, which incorporates the Neumann et al. model of viral dynamics, calculates simulated changes in drug concentration and effectiveness of single drug treatment in Equations […], 6, and 7. See Powers K A. et al. (Seminars in Liver Disease, 2003, 23 Suppl. 1:13-8), and Neumann A U, Lam N P, Dahari H, et al. (Science 1998, 282: 103-107). […]
# Equation 7 incorporates the effects of a delay between a drug binding to its receptor and beginning its biological action. […] Thus, for t>τ, [formula] the effectiveness rate, ε, of a drug at time, t, is calculated by Equation 7.
# For the present invention, the Neumann et al. model of Equation 1 and the absorption and elimination model of Equations 5, 6, and 7, is modified to incorporate calculations for monitoring the effectiveness rate of suppressing viral production by multiple drug treatment through combination therapy with the HCV protease inhibitor and HCV agents including interferon, interferon pegylated, and/or ribavirin. The absorption and elimination model in Equations 5, 6, and 7 is modified by including an effectiveness rate of a combination therapy, Total ε, which is based upon combining the individual efficacy, ε, over time, t, as calculated by Equation 7, for each drug used in the combination therapy of the present invention. The effectiveness rate, Total ε, is calculated with the formula […], where ε(t)Pl is the effectiveness of a HCV protease inhibitor and where ε(t)Ag is the effectiveness of an HCV agent, both independently calculated by Equation 7. […]
# [2] = test system: hepatitis C virus; assay: Parallel group study in patients afflicted with hepatitis C virus, 14 days, mean viral load (HCV RNA); assay type: in vivo; settings: either dose (200 mg or 400 mg three times a day orally) in combination with PEG-Intron 1.5 mcg/kg/week
# Experimental: Preferably, in the practice of the invention, the concentration of HCV-RNA is quantitatively measured by research-based reverse transcriptase polymerase chain reaction (RT-PCR) assay well known to the skilled clinician. Specifically, the Hepatitis C virus (HCV) RNA is measured by extracting total RNA from plasma or serum samples and using an in-house real-time reverse transcriptase polymerase chain reaction (RT-PCR) assay. The amplification target is the 5′-untranslated region (UTR) of the HCV genome. An internal RNA control is added to each sample to assess the efficiency of RNA extraction. Appropriate negative and positive controls are added in each assay run. The assay method has been validated against the WHO International Standard for HCV. HCV RNA amount in a sample is reported as copies of HCV RNA per mL of sample and also as HCV IU per mL of sample. Results for sample at or above 100 copies of HCV RNA per mL are denoted as POS. On the other hand, ND stands for <100 copies of HCV RNA or <29 IU of HCV per mL of sample. […] With respect to quantifying HCV RNA with the rt-PCR methodology referred to herein, one (1) copy of HCV RNA equals 0.29 IU, such that 100 copies of HCV RNA per milliliter of plasma is 29 International Units per milliliter of plasma. […] HCV genotype is determined by sequencing the PCR amplified DNA fragment of the 5′-UTR of the HCV genome. […]
compound,measurement,setting,value
CC(C)(C)NC(=O)N[C@H](C(=O)N1CC2C([C@H]1C(=O)NC(CC1CCC1)C(=O)C(N)=O)C2(C)C)C(C)(C)C (some centres unmarked) [HCV protease inhibitor],"theoretical effectiveness rate, ε, over time, t","[1]; 200 mg three times a day orally with PEG-Intron 1.5 mcg/kg/week subcutaneously, 48 weeks",0.989
same,time of treatment until viral load is below 29 IU/ml plasma (100 copies per ml plasma),"[1]; 200 mg three times a day orally with PEG-Intron 1.5 mcg/kg/week subcutaneously, theoretical calculations",approximately 14 weeks
same,"effectiveness rate, ε, over time, t","[1]; 400 mg three times a day orally with PEG-Intron 1.5 mcg/kg/week subcutaneously, 48 weeks",0.997
same,viral load in the second week of treatment,[2],continued to decline
same,decrease in mean viral load at the end of the first week of treatment,[2]; compared with PEG-Intron alone,much steeper decrease in mean viral load
